In the OligoGym collection:
HELM strings list units from the 5' end as sugar, base in round brackets, then linkage (d deoxyribose, r ribose, m 2'-O-methyl, p phosphodiester). Strings are as the collection lists them; they lack the last nucleoside at the 3' end of the tested compound. [moe] = 2'-O-(2-methoxyethyl) (MOE); [sp] = phosphorothioate linkage; [m5C] = 5-methylcytosine

What follows are substances tested against PRNP (assay: mouse, dose not given). Details: ASO.
In the case of “RNA1{[moe](G)[sp].[moe]([m5C])p.[moe](T)p.[moe](A)p.[moe](T)[sp].d(G)[sp].d(A)[sp].d(A)[sp].d(A)[sp].d(T)[sp].d([m5C])[sp].d(T)[sp].d([m5C])[sp].d(T)[sp].d(A)[sp].[moe]([m5C])p.[moe](T)p.[moe](A)[sp].[moe](A)}$$$$ (last 3' nucleoside missing)”, the 3 h FOB score is reported as 2.5 score 0-7. In the case of “RNA1{[moe](G)[sp].[moe]([m5C])p.[moe](T)p.[moe](A)p.[moe](T)[sp].d([m5C])[sp].d(T)[sp].d(T)[sp].d(T)[sp].d([m5C])[sp].d(T)[sp].d(A)[sp].d(T)[sp].d(T)[sp].d(T)[sp].[moe](G)p.[moe](T)p.[moe](G)[sp].[moe](T)}$$$$ (last 3' nucleoside missing)”, the 3 h FOB score is reported as 1 score 0-7. “RNA1{[moe](G)[sp].[moe]([m5C])p.[moe](T)p.[moe](T)p.[moe](A)[sp].d(A)[sp].d(T)[sp].d(T)[sp].d(A)[sp].d(G)[sp].d(T)[sp].d(T)[sp].d(A)[sp].d([m5C])[sp].d(A)[sp].[moe](T)p.[moe]([m5C])p.[moe](G)[sp].[moe](G)}$$$$ (last 3' nucleoside missing)” was tested, and the 3 h FOB score was 4.5 score 0-7. With “RNA1{[moe](G)[sp].[moe]([m5C])p.[moe](T)p.[moe](T)p.[moe](A)[sp].d(T)[sp].d(T)[sp].d(A)[sp].d(T)[sp].d(T)[sp].d([m5C])[sp].d(A)[sp].d(T)[sp].d(G)[sp].d(T)[sp].[moe](T)p.[moe]([m5C])p.[moe](T)[sp].[moe]([m5C])}$$$$ (last 3' nucleoside missing)” the 3 h FOB score was 3.5 score 0-7. For “RNA1{[moe](G)[sp].[moe]([m5C])p.[moe](T)p.[moe](T)p.[moe](A)[sp].d([m5C])[sp].d(T)[sp].d([m5C])[sp].d(G)[sp].d(G)[sp].d([m5C])[sp].d(T)[sp].d(T)[sp].d(G)[sp].d(T)[sp].[moe](T)p.[moe]([m5C])p.[moe]([m5C])[sp].[moe](A)}$$$$ (last 3' nucleoside missing)”, the 3 h FOB score was 5.25 score 0-7. Substance “RNA1{[moe](G)[sp].[moe]([m5C])p.[moe](T)p.[moe](T)p.[moe](A)p.[moe](T)p.d(T)[sp].d(A)[sp].d(T)[sp].d(T)[sp].d([m5C])[sp].d(A)[sp].d(T)[sp].d(G)[sp].d(T)[sp].d(T)[sp].[moe]([m5C])p.[moe](T)[sp].[moe]([m5C])}$$$$ (last 3' nucleoside missing)” has a 3 h FOB score of 1.75 score 0-7. With “RNA1{[moe](G)[sp].[moe]([m5C])p.[moe](T)p.[moe](T)p.[moe](A)p.[moe]([m5C])p.d(T)[sp].d([m5C])[sp].d(G)[sp].d(G)[sp].d([m5C])[sp].d(T)[sp].d(T)[sp].d(G)[sp].d(T)[sp].d(T)[sp].[moe]([m5C])p.[moe]([m5C])[sp].[moe](A)}$$$$ (last 3' nucleoside missing)” the 3 h FOB score was 0.75 score 0-7. With “RNA1{[moe](G)[sp].[moe]([m5C])p.[moe](T)p.[moe](T)p.[moe](A)p.d(T)[sp].d(T)[sp].d(A)[sp].d(T)[sp].d(T)[sp].d([m5C])[sp].d(A)[sp].d(T)[sp].d(G)[sp].[moe](T)[sp].[moe](T)p.[moe]([m5C])p.[moe](T)}$$$$ (last 3' nucleoside missing)” the 3 h FOB score was 1 score 0-7. Substance “RNA1{[moe](G)[sp].[moe]([m5C])p.[moe](T)p.[moe](T)p.[moe](A)p.d([m5C])[sp].d(T)[sp].d([m5C])[sp].d(G)[sp].d(G)[sp].d([m5C])[sp].d(T)[sp].d(T)[sp].d(G)[sp].[moe](T)[sp].[moe](T)p.[moe]([m5C])p.[moe]([m5C])}$$$$ (last 3' nucleoside missing)” has a 3 h FOB score of 4.5 score 0-7. In the case of “RNA1{[moe](G)[sp].[moe]([m5C])p.[moe](T)p.[moe](T)p.[moe](T)[sp].d(G)[sp].d(G)[sp].d(A)[sp].d(T)[sp].d([m5C])[sp].d(T)[sp].d([m5C])[sp].d(T)[sp].d(T)[sp].d(A)[sp].[moe](G)p.[moe](A)p.[moe](T)[sp].[moe](T)}$$$$ (last 3' nucleoside missing)”, the 3 h FOB score is reported as 0 score 0-7. With “RNA1{[moe](G)[sp].[moe]([m5C])p.[moe](T)p.[moe](T)p.[moe]([m5C])[sp].d(T)[sp].d([m5C])[sp].d(A)[sp].d(A)[sp].d(T)[sp].d(T)[sp].d(T)[sp].d(T)[sp].d(T)[sp].d([m5C])[sp].[moe]([m5C])p.[moe](A)p.[moe](A)[sp].[moe]([m5C])}$$$$ (last 3' nucleoside missing)” the 3 h FOB score was 0 score 0-7. Work on “RNA1{[moe](G)[sp].[moe]([m5C])p.[moe](T)p.[moe](T)p.d(A)[sp].d(T)[sp].d(T)[sp].d(A)[sp].d(T)[sp].d(T)[sp].d([m5C])[sp].d(A)[sp].d(T)[sp].d(G)[sp].[moe](T)p.[moe](T)p.[moe]([m5C])p.[moe](T)[sp].[moe]([m5C])}$$$$ (last 3' nucleoside missing)” yielded a 3 h FOB score of 1 score 0-7. “RNA1{[moe](G)[sp].[moe]([m5C])p.[moe](T)p.[moe](T)p.d(A)[sp].d([m5C])[sp].d(T)[sp].d([m5C])[sp].d(G)[sp].d(G)[sp].d([m5C])[sp].d(T)[sp].d(T)[sp].d(G)[sp].[moe](T)p.[moe](T)p.[moe]([m5C])p.[moe]([m5C])[sp].[moe](A)}$$$$ (last 3' nucleoside missing)” showed a 3 h FOB score of 3.25 score 0-7. Substance “RNA1{[moe](G)[sp].[moe]([m5C])p.[moe](T)p.[moe]([m5C])p.[moe](T)[sp].d(A)[sp].d(T)[sp].d(T)[sp].d(A)[sp].d(A)[sp].d(T)[sp].d(A)[sp].d(G)[sp].d(G)[sp].d(T)[sp].[moe](T)p.[moe](A)p.[moe](G)[sp].[moe](G)}$$$$ (last 3' nucleoside missing)” has a 3 h FOB score of 4.25 score 0-7. “RNA1{[moe](G)[sp].[moe]([m5C])p.[moe]([m5C])p.[moe](A)p.[moe](A)[sp].d(G)[sp].d(G)[sp].d(G)[sp].d(T)[sp].d(A)[sp].d(T)[sp].d(T)[sp].d(G)[sp].d(A)[sp].d(T)[sp].[moe](T)p.[moe](A)p.[moe](G)[sp].[moe]([m5C])}$$$$ (last 3' nucleoside missing)” gave a 3 h FOB score of 3.5 score 0-7. Work on “RNA1{[moe](G)[sp].[moe]([m5C])p.[moe]([m5C])p.[moe](A)p.[moe](A)[sp].d(T)[sp].d(A)[sp].d(A)[sp].d(T)[sp].d(A)[sp].d(A)[sp].d([m5C])[sp].d(A)[sp].d(T)[sp].d(T)[sp].[moe](G)p.[moe]([m5C])p.[moe](A)[sp].[moe](G)}$$$$ (last 3' nucleoside missing)” yielded a 3 h FOB score of 0 score 0-7. Substance “RNA1{[moe](G)[sp].[moe]([m5C])p.[moe]([m5C])p.[moe](A)p.[moe]([m5C])[sp].d(A)[sp].d(T)[sp].d(A)[sp].d(T)[sp].d(A)[sp].d(G)[sp].d(G)[sp].d(G)[sp].d(T)[sp].d([m5C])[sp].[moe]([m5C])p.[moe](T)p.[moe](T)[sp].[moe](T)}$$$$ (last 3' nucleoside missing)” has a 3 h FOB score of 1.5 score 0-7. For “RNA1{[moe](G)[sp].[moe]([m5C])p.[moe]([m5C])p.[moe](A)p.[moe]([m5C])p.[moe](A)p.d(T)[sp].d(A)[sp].d(T)[sp].d(A)[sp].d(G)[sp].d(G)[sp].d(G)[sp].d(T)[sp].d([m5C])[sp].d([m5C])[sp].[moe](T)p.[moe](T)[sp].[moe](T)}$$$$ (last 3' nucleoside missing)”, the 3 h FOB score was 4 score 0-7. Work on “RNA1{[moe](G)[sp].[moe]([m5C])p.[moe]([m5C])p.[moe](A)p.d([m5C])[sp].d(A)[sp].d(T)[sp].d(A)[sp].d(T)[sp].d(A)[sp].d(G)[sp].d(G)[sp].d(G)[sp].d(T)[sp].[moe]([m5C])p.[moe]([m5C])p.[moe](T)p.[moe](T)[sp].[moe](T)}$$$$ (last 3' nucleoside missing)” yielded a 3 h FOB score of 3.75 score 0-7. In the case of “RNA1{[moe](G)[sp].[moe]([m5C])p.[moe]([m5C])p.[moe](T)p.[moe](T)[sp].d(A)[sp].d(A)[sp].d(T)[sp].d(T)[sp].d(A)[sp].d([m5C])[sp].d([m5C])[sp].d(T)[sp].d(A)[sp].d(T)[sp].[moe](A)p.[moe](G)p.[moe](T)[sp].[moe](T)}$$$$ (last 3' nucleoside missing)”, the 3 h FOB score is reported as 1 score 0-7. “RNA1{[moe](T)[sp].[moe](A)p.[moe](G)p.[moe](G)p.[moe]([m5C])[sp].d(T)[sp].d([m5C])[sp].d(T)[sp].d(T)[sp].d(T)[sp].d(T)[sp].d([m5C])[sp].d([m5C])[sp].d(A)[sp].d(G)[sp].[moe](G)p.[moe](T)p.[moe](G)[sp].[moe](T)}$$$$ (last 3' nucleoside missing)” was tested, and the 3 h FOB score was 1 score 0-7. Work on “RNA1{[moe](T)[sp].[moe](A)p.[moe](T)p.[moe](G)p.[moe](T)p.d(T)[sp].d(T)[sp].d(T)[sp].d([m5C])[sp].d([m5C])[sp].d(A)[sp].d(G)[sp].d(T)[sp].d(G)[sp].[moe]([m5C])p.[moe]([m5C])p.[moe]([m5C])[sp].[moe](A)}$$$$ (last 3' nucleoside missing)” yielded a 3 h FOB score of 5.25 score 0-7. Work on “RNA1{[moe](T)[sp].[moe](A)p.[moe]([m5C])p.[moe](T)p.[moe](T)[sp].d(G)[sp].d(T)[sp].d([m5C])[sp].d(A)[sp].d(G)[sp].d(T)[sp].d(T)[sp].d(T)[sp].d(T)[sp].d(T)[sp].[moe]([m5C])p.[moe]([m5C])p.[moe]([m5C])[sp].[moe]([m5C])}$$$$ (last 3' nucleoside missing)” yielded a 3 h FOB score of 4.5 score 0-7. For “RNA1{[moe](T)[sp].[moe](A)p.[moe]([m5C])p.[moe](T)p.[moe]([m5C])[sp].d(T)[sp].d(A)[sp].d(T)[sp].d(G)[sp].d(T)[sp].d(T)[sp].d(T)[sp].d(T)[sp].d([m5C])[sp].d([m5C])[sp].[moe](A)p.[moe](G)p.[moe](T)[sp].[moe](G)}$$$$ (last 3' nucleoside missing)”, the 3 h FOB score was 1.75 score 0-7. “RNA1{[moe](T)[sp].[moe](G)p.[moe](G)p.[moe](A)p.[moe](A)[sp].d(G)[sp].d(A)[sp].d([m5C])[sp].d(T)[sp].d(T)[sp].d(G)[sp].d(T)[sp].d(G)[sp].d(T)[sp].d(T)[sp].[moe](A)p.[moe](G)p.[moe](A)[sp].[moe](T)}$$$$ (last 3' nucleoside missing)” gave a 3 h FOB score of 6.5 score 0-7. In the case of “RNA1{[moe](T)[sp].[moe](G)p.[moe](G)p.[moe](G)p.[moe](A)[sp].d(G)[sp].d(T)[sp].d(A)[sp].d(T)[sp].d([m5C])[sp].d(A)[sp].d(A)[sp].d(T)[sp].d(T)[sp].d(T)[sp].[moe](A)p.[moe](A)p.[moe](G)[sp].[moe]([m5C])}$$$$ (last 3' nucleoside missing)”, the 3 h FOB score is reported as 0 score 0-7.
